From PubChem BioAssay AID1259411 (Chemical Carcinogenesis Research Information System (CCRIS), 2018)
Activity calls are given as the source filed them. The rule behind the calls is not given here.

System: rodent carcinogenicity bioassays, tumor incidence
Test: CCRIS carcinogenicity studies
Outline: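 NCI-built, expert-reviewed records of carcinogenicity and related test outcomes (mutagenicity, tumor promotion/inhibition) compiled from published and report sources, historical span 1985-2011, not updated.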

## O=C(O)C(Cl)Cl
Species: MOUSE, Strain/Sex: B6C3F1/FEMALE, Route: ORAL, Dose: 0, 2, 6.67, 20 MMOL/L IN DRINKING WATER FOR 360 D (STUDY DURATION: 360 D), Dose: 0, 2, 6.67, 20 MMOL/L IN DRINKING WATER FOR 360 D (STUDY DURATION: 360 D), Tumor Site: Type of Lesion: LIVER: ADENOMA
  carcinogen call: active; positive
Species: MOUSE, Strain/Sex: B6C3F1/FEMALE, Route: ORAL, Dose: 0, 2, 6.67, 20 MMOL/L IN DRINKING WATER FOR 576 D (STUDY DURATION: 576 D), Dose: 0, 2, 6.67, 20 MMOL/L IN DRINKING WATER FOR 576 D (STUDY DURATION: 576 D), Tumor Site: Type of Lesion: LIVER: ADENOMA, CARCINOMA
  carcinogen call: active; positive
Species: MOUSE, Strain/Sex: B6C3F1/FEMALE, Route: ORAL, Dose: 0, 2 G/L (TOTAL DOSE) IN DRINKING WATER FOR 52 WK (STUDY DURATION: 52 WK)
  carcinogen call: inactive; negative
Species: MOUSE, Strain/Sex: B6C3F1/FEMALE, Route: ORAL, Dose: 0, 20 MMOL/L IN DRINKING WATER FOR 24 D FOLLOWED BY 48 D WITHOUT EXPOSURE THIS 72-DAY CYCLE REPEATED FOR THE DURATION OF
  carcinogen call: inactive; negative
Species: MOUSE, Strain/Sex: B6C3F1/MALE, Route: ORAL, Dose: 0, 0.5, 1.0, 2, 3.5 G/L IN DRINKING WATER FOR 26 WK (STUDY DURATION: 26 WK), Dose: 0, 0.5, 1.0, 2, 3.5 G/L IN DRINKING WATER FOR 26 WK (STUDY DURATION: 26 WK)
  carcinogen call: inactive; negative
Species: MOUSE, Strain/Sex: B6C3F1/MALE, Route: ORAL, Dose: 0, 0.5, 1.0, 2, 3.5 G/L IN DRINKING WATER FOR 52 WK (STUDY DURATION: 52 WK), Dose: 0, 0.5, 1.0, 2, 3.5 G/L IN DRINKING WATER FOR 52 WK (STUDY DURATION: 52 WK), Tumor Site: Type of Lesion: LIVER: HEPATOCELLULAR ADENOMA OR CARCINOMA
  carcinogen call: active; positive
Species: MOUSE, Strain/Sex: B6C3F1/MALE, Route: ORAL, Dose: 0, 0.5, 1.0, 2, 3.5 G/L IN DRINKING WATER FOR 78 WK (STUDY DURATION: 78 WK), Dose: 0, 0.5, 1.0, 2, 3.5 G/L IN DRINKING WATER FOR 78 WK (STUDY DURATION: 78 WK), Tumor Site: Type of Lesion: LIVER: HEPATOCELLULAR ADENOMA OR CARCINOMA
  carcinogen call: active; positive
Species: MOUSE, Strain/Sex: B6C3F1/MALE, Route: ORAL, Dose: 0, 0.5, 1.0, 2, 3.5 G/L IN DRINKING WATER FOR 100 WK (STUDY DURATION: 100 WK), Dose: 0, 0.5, 1.0, 2, 3.5 G/L IN DRINKING WATER FOR 100 WK (STUDY DURATION: 100 WK), Tumor Site: Type of Lesion: LIVER: HEPATOCELLULAR ADENOMA OR CARCINOMA
  carcinogen call: active; positive
Species: MOUSE, Strain/Sex: B6C3F1/MALE, Route: ORAL, Dose: 0, 0.5 G/L DISTILLED DRINKING WATER FOR STUDY DURATION (93 MG/KG/D) (STUDY DURATION: 104 WK), Tumor Site: Type of Lesion: LIVER: HEPATOCELLULAR CARCINOMA, HEPATOCELLULAR ADENOMA
  carcinogen call: active; positive
Species: MOUSE, Strain/Sex: B6C3F1/MALE, Route: ORAL, Dose: 0, 1, 2 G/L IN DRINKING WATER FOR 52 WK (STUDY DURATION: 52 WK), Dose: 0, 1, 2 G/L IN DRINKING WATER FOR 52 WK (STUDY DURATION: 52 WK), Tumor Site: Type of Lesion: LIVER: ADENOMA OR HEPATOCELLULAR CARCINOMA
  carcinogen call: active; positive
Species: MOUSE, Strain/Sex: B6C3F1/MALE, Route: ORAL, Dose: 0, 1 G, 2 G/L (TOTAL DOSE) IN DRINKING WATER FOR 52 WK (STUDY DURATION: 52 WK), Dose: 0, 1 G, 2 G/L (TOTAL DOSE) IN DRINKING WATER FOR 52 WK (STUDY DURATION: 52 WK), Tumor Site: Type of Lesion: LIVER: HEPATOCELLULAR CARCINOMA, ADENOMA, HYPERPLASTIC NODULES
  carcinogen call: active; positive
Species: MOUSE, Strain/Sex: B6C3F1/MALE, Route: ORAL, Dose: 0, 2 G/L (TOTAL DOSE) IN DRINKING WATER FOR 37 WK (STUDY DURATION: 52 WK), Tumor Site: Type of Lesion: LIVER: ADENOMA, HYPERPLASTIC NODULES
  carcinogen call: active; positive
Species: MOUSE, Strain/Sex: B6C3F1/MALE, Route: ORAL, Dose: 0, 5 G/L (0; 39 MILLIMOLAR) IN DRINKING WATER FOR 61 WK (STUDY DURATION: 61 WK), Dose: 0, 5 G/L (0; 39 MILLIMOLAR) IN DRINKING WATER FOR 61 WK (STUDY DURATION: 61 WK), Tumor Site: Type of Lesion: LIVER: CARCINOMA
  carcinogen call: active; positive
Species: RAT, Strain/Sex: F344/MALE, Route: ORAL, Dose: 0, 0.05, 0.5 G/L IN DRINKING WATER FOR 100 WK (STUDY DURATION: 100 WK), Dose: 0, 0.05, 0.5 G/L IN DRINKING WATER FOR 100 WK (STUDY DURATION: 100 WK), Tumor Site: Type of Lesion: LIVER: HEPATOCELLULAR ADENOMA OR CARCINOMA
  carcinogen call: active; positive
Species: RAT, Strain/Sex: F344/MALE, Route: ORAL, Dose: 0, 2.5 G/L IN DRINKING WATER DOSE LOWERED TO 1 G/L AFTER 18 WK (STUDY DURATION: 103 WK), Tumor Site: Type of Lesion: LIVER: HEPATOCELLULAR ADENOMA OR CARCINOMA
  carcinogen call: active; positive

## CCN=c1cc2oc3cc(NCC)c(C)cc3c(-c3ccccc3C(=O)OCC)c-2cc1C
Species: MOUSE, Strain/Sex: B6C3F1/FEMALE, Route: ORAL, Dose: 0, 500, 1000 PPM IN FEED FOR 103 WK (STUDY DURATION: 105 WK), Dose: 0, 500, 1000 PPM IN FEED FOR 103 WK (STUDY DURATION: 105 WK)
  carcinogen call: inactive; negative
Species: MOUSE, Strain/Sex: B6C3F1/MALE, Route: ORAL, Dose: 0, 1000, 2000 PPM IN FEED FOR 103 WK (STUDY DURATION: 105 WK), Dose: 0, 1000, 2000 PPM IN FEED FOR 103 WK (STUDY DURATION: 105 WK)
  carcinogen call: inactive; negative
Species: RAT, Strain/Sex: F344/FEMALE, Route: ORAL, Dose: 0, 120, 250 PPM IN FEED FOR 103 WK (STUDY DURATION: 105 WK), Dose: 0, 120, 250 PPM IN FEED FOR 103 WK (STUDY DURATION: 105 WK), Tumor Site: Type of Lesion: ADRENAL GLAND: PHEOCHROMOCYTOMA OR MALIGNANT PHEOCHROMOCYTOMA
  carcinogen call: equivocal
Species: RAT, Strain/Sex: F344/MALE, Route: ORAL, Dose: 0, 120, 250 PPM IN FEED FOR 103 WK (STUDY DURATION: 105 WK), Dose: 0, 120, 250 PPM IN FEED FOR 103 WK (STUDY DURATION: 105 WK), Tumor Site: Type of Lesion: INTEGUMENTARY SYSTEM: KERATOACANTHOMA
  carcinogen call: equivocal

## CO[C@@H](Cc1ccc(OCCCOc2ccc(Oc3ccccc3)cc2)cc1)C(=O)O
Species: Rat, Strain/Sex: F344/N / Female (60/Group), Route: Oral (gavage), Dose: 0, 0.1, 0.3, 1.0 mg/kg bw daily for 104 wk, study duration 104 wk, Dose: 0, 0.1, 0.3, 1.0 mg/kg bw daily for 104 wk, study duration 104 wk, Tumor Site: Type of Lesion: Bladder: carcinoma (0, 0, 2, 8), papilloma (0, 0, 0, 6)
  carcinogen call: active; positive. study primarily directed to urine characteristics.
Species: Rat, Strain/Sex: F344/N / Male (60/Group), Route: Oral (gavage), Dose: 0, 0.3, 1.0, 3.0 mg/kg bw daily for 104 wk, study duration 104 wk, Dose: 0, 0.3, 1.0, 3.0 mg/kg bw daily for 104 wk, study duration 104 wk
  carcinogen call: inactive; negative

## NC(=O)N(CCc1ccccc1)N=O
Species: RAT, Strain/Sex: F344/FEMALE, Route: GAVAGE, Dose: 0, 20 MG/ML (TOTAL DOSE 0; 0.9 MMOL) IN 2 ML ETHYL ACETATE AND CORN OIL (1:2) 2/WK FOR 22 WK (STUDY DURATION: LIFETIME), Dose: 0, 20 MG/ML (TOTAL DOSE 0; 0.9 MMOL) IN 2 ML ETHYL ACETATE AND CORN OIL (1:2) 2/WK FOR 22 WK (STUDY DURATION: LIFETIME), Tumor Site: Type of Lesion: LIVER: TUMOR, FORESTOMACH: SQUAMOUS CELL CARCINOMA
  carcinogen call: active; positive
Species: RAT, Strain/Sex: F344/FEMALE, Route: GAVAGE, Dose: 0, 20 MG/ML IN 0.2 ML ETHYL ACETATE AND CORN OIL 2/WK FOR 22 WK (STUDY DURATION: LIFESPAN), Tumor Site: Type of Lesion: FORESTOMACH: TUMOR, LIVER: TUMOR
  carcinogen call: active; positive
Species: RAT, Strain/Sex: F344/MALE, Route: GAVAGE, Dose: 0, 20 MG/ML (TOTAL DOSE 0; 0.9 MMOL) IN 2 ML ETHYL ACETATE AND CORN OIL (1:2) 2/WK FOR 22 WK (STUDY DURATION: LIFETIME), Dose: 0, 20 MG/ML (TOTAL DOSE 0; 0.9 MMOL) IN 2 ML ETHYL ACETATE AND CORN OIL (1:2) 2/WK FOR 22 WK (STUDY DURATION: LIFETIME), Tumor Site: Type of Lesion: LIVER: TUMOR, FORESTOMACH: SQUAMOUS CELL CARCINOMA
  carcinogen call: active; positive
Species: RAT, Strain/Sex: F344/MALE, Route: GAVAGE, Dose: 0, 20 MG/ML IN 0.2 ML ETHYL ACETATE AND CORN OIL 2/WK FOR 22 WK (STUDY DURATION: LIFESPAN), Tumor Site: Type of Lesion: FORESTOMACH: TUMOR, LIVER: TUMOR, DUODENUM: TUMOR, Tumor Site: Type of Lesion: FORESTOMACH: TUMOR, LIVER: TUMOR, DUODENUM: TUMOR
  carcinogen call: active; positive

## S=P(N1CCOCC1)(N1CC1)N1CC1
Species: MOUSE, Route: INTRAPERITONEAL, Tumor Site: Type of Lesion: LUNG
  carcinogen call: active; positive
